Reference: PMC8595397, “Reproductive Regulation of PrRPs in Teleost: The Link Between Feeding and Reproduction” (Frontiers in Endocrinology, 2021)
Like-named read-outs stand apart in the source and are kept apart here. Ends that are not written are not given here.

Assays:
[1] = test system: PrRPs, GnRH2 and GnRH3 mRNA in grass carp brain cells; experiment: PrRPs and GnRH mRNA expression in primary brain cells; format: cell-based; details: E2 1 μM, 24 h
Method: (§1) In brief, 13-14 grass carp brains were obtained and separated into the required brain areas including telencephalon, hypothalamus, and optic tectum, which were cut into 0.8 mm tissue fragments using […] tissue chopper (Cavey laboratory). After washing with Minimum Essential Medium (MEM, Gibco) three times, the brain fragments were incubated with 6 mg/ml trypsin (Sigma) dissolved in the medium under the conditions of 28°C, 48 rpm for 30 min. […] The brain fragments were filtered using a 30 μm filter screen and cultured into a 24-well cell culture plate under 28°C, 5% CO2 concentration. […] After another 2 days of incubation, a single-dose E2 treatment (1 μM) was performed on the cells. […] The β-actin mRNA was used as an internal parameter to eliminate random error. Therefore, genes mRNA data as well as LH release data were easily converted as a percentage of the mean value (as “% Ctrl”). The data presented (as Mean ± SEM) collected results from 4-8 parallel group experiments and analyzed with ANOVA.

[2] = test system: PrRP-Rs mRNA in grass carp brain cells; experiment: PrRP-Rs mRNA expression in primary brain cells; format: cell-based; details: E2 1 μM, 24 h
Method: as §1

prepubertal zebrafish = test system: prepubertal zebrafish; design: method as in PMID 22689988; details: cited from earlier work
[3] = test system: grass carp pituitary cells; experiment: Signal transduction: LH release with inhibitors in pituitary cells; format: cell-based
[4] = test system: LHβ mRNA in grass carp pituitary cells; experiment: Signal transduction: LHβ mRNA expression with inhibitors in pituitary cells; format: cell-based
[5] = test system: GtHα mRNA in grass carp pituitary cells; experiment: Signal transduction: GtHα mRNA expression with inhibitors in pituitary cells; format: cell-based
PrRP-R1a = biological target: T1, PrRP-R1a (Ctenopharyngodon idella, UniProt A0A4P9NKE7); experiment: cell-based; design: species or system grass carp (Ctenopharyngodon idellus)
T1 sequence (A0A4P9NKE7 1-371): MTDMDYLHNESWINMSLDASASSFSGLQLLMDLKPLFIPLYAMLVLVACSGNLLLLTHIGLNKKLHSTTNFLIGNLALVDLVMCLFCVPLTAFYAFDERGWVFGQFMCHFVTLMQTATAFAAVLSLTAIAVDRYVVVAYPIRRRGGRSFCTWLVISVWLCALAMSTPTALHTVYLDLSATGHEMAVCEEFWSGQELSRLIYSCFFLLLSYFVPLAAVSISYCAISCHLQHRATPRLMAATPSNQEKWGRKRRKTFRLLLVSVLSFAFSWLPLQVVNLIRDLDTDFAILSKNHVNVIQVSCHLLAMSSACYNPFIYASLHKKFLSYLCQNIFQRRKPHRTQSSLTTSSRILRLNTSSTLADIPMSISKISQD

PrRP-R1b = biological target: T2, PrRP-R1b (Ctenopharyngodon idella, UniProt A0A4P9NKE2); experiment: cell-based; design: species or system grass carp (Ctenopharyngodon idellus)
T2 sequence (A0A4P9NKE2 1-377): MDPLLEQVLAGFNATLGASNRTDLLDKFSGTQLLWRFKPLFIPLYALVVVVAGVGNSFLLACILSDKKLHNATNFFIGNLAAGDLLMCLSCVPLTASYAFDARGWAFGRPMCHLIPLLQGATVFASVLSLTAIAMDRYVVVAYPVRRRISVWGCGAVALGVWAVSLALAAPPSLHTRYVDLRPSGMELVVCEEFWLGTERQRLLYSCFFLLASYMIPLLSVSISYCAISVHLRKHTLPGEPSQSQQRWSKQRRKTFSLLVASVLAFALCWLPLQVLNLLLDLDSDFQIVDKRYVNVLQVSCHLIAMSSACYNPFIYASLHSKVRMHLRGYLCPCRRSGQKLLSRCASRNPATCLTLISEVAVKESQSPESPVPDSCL

PrRP-R2a = biological target: T3, PrRP-R2a (Ctenopharyngodon idella, UniProt A0A4V1HW94); experiment: cell-based; design: species or system grass carp (Ctenopharyngodon idellus)
T3 sequence (A0A4V1HW94 1-370): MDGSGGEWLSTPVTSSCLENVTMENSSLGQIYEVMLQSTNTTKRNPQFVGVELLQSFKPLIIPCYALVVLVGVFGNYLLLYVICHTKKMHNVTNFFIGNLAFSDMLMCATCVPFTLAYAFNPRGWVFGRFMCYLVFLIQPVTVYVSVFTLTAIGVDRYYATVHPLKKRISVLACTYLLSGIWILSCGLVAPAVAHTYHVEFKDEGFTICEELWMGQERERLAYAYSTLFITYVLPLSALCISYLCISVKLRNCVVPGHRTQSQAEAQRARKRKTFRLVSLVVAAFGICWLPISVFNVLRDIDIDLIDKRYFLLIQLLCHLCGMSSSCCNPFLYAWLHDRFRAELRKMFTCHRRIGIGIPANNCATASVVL

hPrRPR = biological target: T4, hPrRPR (Homo sapiens, UniProt P49683); experiment: NFAT-luc reporter assay, functional expression of hPrRPR in HEK-293T cells; format: cell-based
T4 construct: the full-length open reading frame (ORF) of human PrRP receptor (hPrRPR); expressed in transfected cells; host or cells: HEK-293T
T4 sequence (P49683 1-370): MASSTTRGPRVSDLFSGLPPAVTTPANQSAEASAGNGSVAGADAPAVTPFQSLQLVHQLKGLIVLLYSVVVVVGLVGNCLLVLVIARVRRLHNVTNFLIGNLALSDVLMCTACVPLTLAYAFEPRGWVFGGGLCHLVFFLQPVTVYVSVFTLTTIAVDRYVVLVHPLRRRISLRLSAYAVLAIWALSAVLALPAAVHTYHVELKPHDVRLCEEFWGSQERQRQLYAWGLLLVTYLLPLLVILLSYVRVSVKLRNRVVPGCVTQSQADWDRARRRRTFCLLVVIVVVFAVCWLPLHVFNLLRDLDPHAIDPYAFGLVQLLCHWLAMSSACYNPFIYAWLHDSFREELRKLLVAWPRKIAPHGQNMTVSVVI

[6] = PrRP1 or PrRP2 1 μM, MDL12330A 20 μM, H89 20 μM, U73122 10 μM, GF109203X 20 μM, 2-APB 100 μM, nifedipine 10 μM, calmidazolium 1 μM, KN62 5 μM
[7] = sheet prrp1, block PKC (r14-19), PrRP1 1 μM, U73122 10 μM, GF109203X 20 μM, 24 h, mean
[8] = sheet prrp1, block r21-30, PrRP1 1 μM, U73122 10 μM, 2-APB 100 μM, KN62 5 μM, nifedipine 10 μM, 24 h, mean
[9] = sheet prrp2, block r10-15, PrRP2 1 μM, U73122 10 μM, GF109203X 20 μM, 24 h, mean
[10] = sheet prrp1, block r21-32, PrRP1 1 μM, U73122 10 μM, 2-APB 100 μM, KN62 5 μM, nifedipine 10 μM, calmidazolium 1 μM, 24 h, mean
[11] = HEK-293T, NFAT-luc reporter, 24 h, 37°C, GraphPad Prism 7, read-out: EC50, hPrRPR
[12] = sheet prrp1, block PKA, PrRP1 1 μM, MDL12330A 20 μM, H89 20 μM, 24 h, mean
[13] = sheet prrp2, block r2-8, PrRP2 1 μM, MDL12330A 20 μM, H89 20 μM, 24 h, mean
[14] = sheet prrp1, block Nifedipine, CMZ, KN62 (r33-40), PrRP1 1 μM, nifedipine 10 μM, calmidazolium 1 μM, KN62 5 μM, 24 h, mean
[15] = sheet prrp2, block r27-32, PrRP2 1 μM, CMZ 1 μM, KN62 5 μM, 24 h, mean
[16] = sheet prrp2, block r25-30, PrRP2 1 μM, CMZ 1 μM, KN62 5 μM, 24 h, mean

C[C@]12CC[C@@H]3c4ccc(O)cc4CC[C@H]3[C@@H]1CC[C@@H]2O [E2, seventeen β-estradiol]
GnRH3 mRNA expression (in words) [1]: significantly induce
PrRP1 mRNA expression (in words) [1]: significantly induce
gnrh3 mRNA expression (CTR = 1) ([1]; mean): 2.33
prrp1 mRNA expression (CTR = 1) ([1]; mean): 1.32
four PrRP-Rs mRNA expression (in words) [2]: significantly induced
prrp1a mRNA expression (CTR = 1) ([2]; mean): 2.26
prrp1b mRNA expression (CTR = 1) ([2]; mean): 2.14
prrp2a mRNA expression (CTR = 1) ([2]; mean): 1.37
prrp2b mRNA expression (CTR = 1) ([2]; mean): 2.25
expression of key genes involved in reproduction (GnRH3, Kiss2, and Tac3) (in words) (prepubertal zebrafish): enhanced the expression of the key genes involved in reproduction

COc1ccc2c(c1)CC[C@@H]1[C@@H]2CC[C@]2(C)[C@@H](NCCCCCCN3C(=O)C=CC3=O)CC[C@@H]12 [U73122]
effect on PrRPs-induced LH secretion and mRNA expression (in words) [3, 6]: could also block PrRPs-induced LH secretion and mRNA expression
LHβ mRNA expression [4, 7]: 16.4413 % Ctrl
LHβ mRNA expression [4, 8]: 16.4413 % Ctrl
LHβ mRNA expression [4, 9]: 16.4413 % Ctrl
GtHα mRNA expression [5, 7]: 19.2973 % Ctrl
GtHα mRNA expression [5, 10]: 19.2973 % Ctrl
GtHα mRNA expression [5, 9]: 19.2973 % Ctrl

DPNIDAVWYKGRGIRPVGRF-NH2 [PrRP2]
EC50 (PrRP-R1a): 3160 nM
EC50 (PrRP-R1b): 615 nM
EC50 (PrRP-R2a): 78.9 nM
EC50 (hPrRPR; [11]): 52.4 nM

O=S(=O)(NCCNC/C=C/c1ccc(Br)cc1)c1cccc2cnccc12 [H89]
effect on PrRPs-induced LH secretion and mRNA expression (in words) [3, 6]: could be blocked by co-treatment
LHβ mRNA expression [4, 12]: 92.1677 % Ctrl
LHβ mRNA expression [4, 13]: 65.1638 % Ctrl
GtHα mRNA expression [5, 12]: 38.3512 % Ctrl
GtHα mRNA expression [5, 13]: 38.3512 % Ctrl

CN(C)CCCn1cc(C2=C(c3c[nH]c4ccccc34)C(=O)NC2=O)c2ccccc21 [GF109203X]
effect on PrRPs-induced LH secretion and mRNA expression (in words) [3]: could also block PrRPs-induced LH secretion and mRNA expression
LHβ mRNA expression [4]: 101.639 % Ctrl
GtHα mRNA expression [5]: 66.101 % Ctrl

NCCOB(c1ccccc1)c1ccccc1 [2-APB]
effect on PrRPs-induced LH secretion and mRNA expression (in words) [3]: could also block PrRPs-induced LH secretion and mRNA expression
LHβ mRNA expression [4]: 7.49 % Ctrl
GtHα mRNA expression [5]: 30.7224 % Ctrl

TPDINPAWYASRGIRPVGRF-NH2 [hPrRP]
EC50 (PrRP-R1a): 1110 nM
EC50 (PrRP-R1b): 2180 nM
EC50 (PrRP-R2a): 940 nM
EC50 (hPrRPR; [11]): 191 nM

COC(=O)C1=C(C)NC(C)=C(C(=O)OC)C1c1ccccc1[N+](=O)[O-] [nifedipine]
effect on PrRPs-induced LH secretion and mRNA expression (in words) [3, 6]: could also block PrRPs-induced LH secretion and mRNA expression
LHβ mRNA expression [4, 14]: 48.7223 % Ctrl
LHβ mRNA expression [4, 8]: 48.7223 % Ctrl
LHβ mRNA expression ([4]; sheet prrp2, block r18-23, PrRP2 1 μM, 2-APB 100 μM, nifedipine 10 μM, 24 h, mean): 48.7223 % Ctrl
GtHα mRNA expression [5, 10]: 77.477 % Ctrl
GtHα mRNA expression ([5]; sheet prrp2, block r17-22, PrRP2 1 μM, 2-APB 100 μM, nifedipine 10 μM, 24 h, mean): 72.5728 % Ctrl

CN([C@@H](Cc1ccc(OS(=O)(=O)c2cccc3cnccc23)cc1)C(=O)N1CCN(c2ccccc2)CC1)S(=O)(=O)c1cccc2cnccc12 [KN62]
effect on PrRPs-induced LH secretion and mRNA expression (in words) [3, 6]: could also block PrRPs-induced LH secretion and mRNA expression
LHβ mRNA expression [4, 14]: 112.35 % Ctrl
LHβ mRNA expression [4, 8]: 112.35 % Ctrl
LHβ mRNA expression [4, 15]: 112.35 % Ctrl
GtHα mRNA expression [5, 10]: 119.519 % Ctrl
GtHα mRNA expression [5, 16]: 119.519 % Ctrl

Cl.c1ccc(C2CCCC2NC2=NCCCCCCCCCCC2)cc1 (centres unmarked) [MDL12330A]
effect on PrRPs-induced LH secretion and mRNA expression (in words) [3, 6]: could be blocked by co-treatment
LHβ mRNA expression [4, 12]: 19.5731 % Ctrl
LHβ mRNA expression [4, 13]: 52.4857 % Ctrl
GtHα mRNA expression [5, 12]: 33.647 % Ctrl
GtHα mRNA expression [5, 13]: 33.647 % Ctrl

Clc1ccc(C(c2ccc(Cl)cc2)n2cc[n+](CC(OCc3ccc(Cl)cc3Cl)c3ccc(Cl)cc3Cl)c2)cc1 (centres unmarked) [calmidazolium]
effect on PrRPs-induced LH secretion and mRNA expression (in words) [3, 6]: could also block PrRPs-induced LH secretion and mRNA expression
LHβ mRNA expression [4, 14]: 13.098 % Ctrl
LHβ mRNA expression [4, 15]: 13.098 % Ctrl
GtHα mRNA expression [5, 10]: 36.6785 % Ctrl
GtHα mRNA expression [5, 16]: 48.844 % Ctrl

SPEIDPFWYVGRGVRPIGRF-NH2 [PrRP1]
EC50 (PrRP-R1a): 85.3 nM
EC50 (PrRP-R1b): 192 nM
EC50 (PrRP-R2a): 720 nM
EC50 (hPrRPR): 182 nM
